Results as given in US9617263B2, “Phenyl-triazolo-pyridine compounds” (Eli Lilly and Company, priority 2014, dated 2017).

Assays:
[1] = biological target: hGPR40 (Homo sapiens, UniProt O14842); test: Human beta-arrestin agonist assay with 1% FBS (PathHunter, hEK293-hFFAR1); type: cell-based; set-up: host or cells: HEK293 (hEK293-hFFAR1 PathHunter cells)
From the text: (§1) Human embryonic kidney (hEK293)-hFFAR1 cells are purchased from DiscoveRx. Human osteosarcoma (U2OS) cells expressing mFFAR1 are developed by DiscoveRX. These cells co-express the Prolink (PK)-tagged GPR40 and the Enzyme Acceptor (EA)-tagged beta-arrestin fusion proteins. If activation of the GPR40 stimulates beta-arrestin recruitment, it would force complementation of the beta galactosidase (B-gal) enzyme fragments, forming a B-gal enzyme that generates a chemiluminescent signal using the DiscoveRx PathHunter detection kit. Cells are incubated overnight at 5,000 cells/well in 384 well plates in culture media containing 1% FBS (fetal bovine serum). Serial diluted compounds in DMSO (2× dilutions to generate 20 concentrations) are step down diluted in culture media containing 1% FBS (fetal bovine serum) and added to cells with a final top concentration starting of 100 μM. After addition of compounds, cells are incubated for 90 min at 37° C. in 5% CO2 incubator, and DiscoveRX kit detection reagents are added. Measurement of the chemiluminescent signal is ascertained with the Envision reader, after a 1-hour incubation at room temperature. Data are fit to a 4 parameter-fit logistics to determine EC50 values; % activity is measured versus maximum response to TAK875 at 1 μM.

[2] = biological target: T1, PPARγ (Homo sapiens, UniProt P37231); test: PPARγ reporter (CTF) functional assay in CV1 cells; type: cell-based; settings: examined up to 10 M; versus 10 μM PPAR agonist reference compound
T1 construct: expressed in transfected cells; host or cells: CV1 (African green monkey kidney)
T1 sequence (P37231 1-505): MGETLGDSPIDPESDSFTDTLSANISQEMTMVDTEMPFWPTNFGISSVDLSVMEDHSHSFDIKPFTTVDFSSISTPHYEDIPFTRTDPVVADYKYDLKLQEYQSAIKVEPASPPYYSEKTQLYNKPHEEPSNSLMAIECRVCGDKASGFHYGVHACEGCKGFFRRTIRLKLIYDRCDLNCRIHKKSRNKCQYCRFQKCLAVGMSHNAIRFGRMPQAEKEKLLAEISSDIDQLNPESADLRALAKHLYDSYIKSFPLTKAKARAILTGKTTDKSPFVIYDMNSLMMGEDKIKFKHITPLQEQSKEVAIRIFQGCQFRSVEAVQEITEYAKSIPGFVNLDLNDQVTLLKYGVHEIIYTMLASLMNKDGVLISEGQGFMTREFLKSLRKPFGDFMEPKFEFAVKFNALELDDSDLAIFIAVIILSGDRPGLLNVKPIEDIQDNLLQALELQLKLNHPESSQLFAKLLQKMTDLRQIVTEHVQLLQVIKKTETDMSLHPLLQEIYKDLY
T1 sequence (P19793 1-462 partner): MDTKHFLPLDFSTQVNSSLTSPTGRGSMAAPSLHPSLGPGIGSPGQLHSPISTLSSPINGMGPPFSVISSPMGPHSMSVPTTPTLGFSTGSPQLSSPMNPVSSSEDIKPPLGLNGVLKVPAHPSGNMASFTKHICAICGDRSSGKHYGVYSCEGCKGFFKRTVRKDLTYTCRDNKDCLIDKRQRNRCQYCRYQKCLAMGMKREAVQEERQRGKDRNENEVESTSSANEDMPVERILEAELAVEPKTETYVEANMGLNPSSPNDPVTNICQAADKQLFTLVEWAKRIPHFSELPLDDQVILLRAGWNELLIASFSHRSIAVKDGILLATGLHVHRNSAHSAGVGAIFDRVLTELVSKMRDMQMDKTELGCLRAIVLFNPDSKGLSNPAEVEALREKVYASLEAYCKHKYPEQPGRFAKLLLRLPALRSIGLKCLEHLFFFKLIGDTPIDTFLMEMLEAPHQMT
Experimental: Because GPR40 is known to be activated by ligands to PPARγ, exemplified compounds are examined in Gal4 PPARα, Gal4 PPARδ, and PPARγ reporter assays to determine the selectivity of exemplified compounds for PPAR receptors. CV1 cells, which are derived from the renal tissue of an African green monkey, are transfected with various receptor and reporter plasmids using Fugene. […] After 24 hours incubation with compounds, cells are lysed and luciferase activity is determined as a measure of receptor activation by luminescence. […] The maximum percent stimulation is determined versus maximum stimulation obtained with 10 μM of an appropriate PPAR agonist reference compound, 2-methyl-2-(4-{2-methyl-3-[2-(phenylcarbonyl)-4-(trifluoromethoxy)phenoxy]propoxy}phenoxy)propanoic acid. […] Efficacy was negative for PPARα, PPARδ, and PPARγ is detected with the compound of Example 1 when examined up to […] in the specific PPAR co-transfection (CTF) functional assays described above. […]

[3] = test system: Zucker fa/fa rats; test: Acute oral glucose tolerance test (OGTT); type: in vivo, rat
Experimental: OGTTs are performed in Zucker fa/fa rats, a rodent model of insulin resistance, after 1 and 21 days of orally administered material at 1.0, 3.0 and 10 mg/kg. TAK875 at 1 mg/kg served as the positive control. The OGTTs are performed one hour post compound administration with blood samples taken for determination of glucose and insulin levels at 10, 20, 40, 60, and 120 minutes post glucose administration.

[4] = biological target: T2, mGPR40 (Mus musculus, UniProt Q76JU9); test: Mouse beta-arrestin agonist assay with 1% FBS (PathHunter, U2OS mFFAR1); type: cell-based
T2 construct: host or cells: U2OS
From the text: as §1

[5] = versus maximum response to TAK875 at 1 μM

Sequence of hGPR40 (O14842 whole entry, the tested form may be a part): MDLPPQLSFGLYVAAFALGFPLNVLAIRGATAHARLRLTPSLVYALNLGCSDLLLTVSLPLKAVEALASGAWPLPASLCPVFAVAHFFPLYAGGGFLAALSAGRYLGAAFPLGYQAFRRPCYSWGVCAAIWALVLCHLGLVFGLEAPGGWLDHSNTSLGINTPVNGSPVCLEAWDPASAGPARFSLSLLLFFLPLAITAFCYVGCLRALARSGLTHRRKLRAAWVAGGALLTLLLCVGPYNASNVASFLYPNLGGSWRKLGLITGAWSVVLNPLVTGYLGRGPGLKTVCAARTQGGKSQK
Sequence of hGPR40 (P32121 whole entry partner, the tested form may be a part): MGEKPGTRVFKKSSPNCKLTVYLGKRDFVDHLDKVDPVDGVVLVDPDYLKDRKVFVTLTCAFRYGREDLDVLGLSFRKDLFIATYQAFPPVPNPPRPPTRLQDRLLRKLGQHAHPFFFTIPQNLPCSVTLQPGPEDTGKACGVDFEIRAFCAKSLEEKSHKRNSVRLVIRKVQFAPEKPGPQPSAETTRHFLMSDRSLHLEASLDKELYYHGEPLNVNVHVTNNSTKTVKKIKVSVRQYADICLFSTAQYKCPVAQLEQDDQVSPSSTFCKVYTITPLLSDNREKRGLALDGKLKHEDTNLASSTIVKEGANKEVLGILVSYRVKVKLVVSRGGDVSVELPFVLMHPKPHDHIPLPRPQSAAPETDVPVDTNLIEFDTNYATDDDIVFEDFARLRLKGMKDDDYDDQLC
T2 sequence (Q76JU9 whole entry): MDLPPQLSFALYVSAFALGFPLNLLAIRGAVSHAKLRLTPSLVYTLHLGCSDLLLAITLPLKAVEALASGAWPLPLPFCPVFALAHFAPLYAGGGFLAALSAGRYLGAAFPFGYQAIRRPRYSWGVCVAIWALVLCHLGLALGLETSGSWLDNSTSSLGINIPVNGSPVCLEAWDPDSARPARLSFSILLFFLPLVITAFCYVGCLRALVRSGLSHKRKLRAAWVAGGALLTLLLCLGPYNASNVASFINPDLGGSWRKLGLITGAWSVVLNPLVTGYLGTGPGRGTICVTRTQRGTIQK
T2 sequence (P32121 whole entry partner): as the sequence (P32121 whole entry partner, the tested form may be a part) above

Question: What does the source list for `CC#C[C@@H](CC(=O)O)c1ccc(OCc2cc(-c3ccccc3C)cn3ncnc23)cc1` [Example 1, (S)-3-[4-(6-o-Tolyl-[1,2,4]triazolo[1,5-a]pyridin-8-ylmethoxy)-phenyl]-hex-4-ynoic acid]?
Answer: EC50 ([1]; 1% FBS, 90 min, read-out: hGPR40 b-arrestin EC50): 47.4 nM; hGPR40 b-arrestin % stimulation max (FA) [1, 5]: 163%; Efficacy for PPARγ [2]: negative (Efficacy of <20% is considered negative); ED90 for glucose lowering ([3]; oral): 3.3 mg/kg; Insulin AUCs during the OGTTs ([3]; oral 1, 3, 10 mg/kg, values not statistically significant): dose dependent elevation; AUCs for glucose lowering ([3]; oral, Example 1 at 1, 3 and 10 mg/kg, TAK875 at 1 mg/kg, p<0.05): statistically significant; EC50 ([4]; 1% FBS, 90 min, read-out: mGPR40 b-arrestin EC50): 4.02 nM; mGPR40 b-arrestin % stimulation max (FA) [4, 5]: 160%
